# Biological target: EIF2AK2 (PKR) (Homo sapiens, UniProt P19525)
# Test: In vitro HotSpot kinase assay on PKR
# Type: biochemical
# Protocol: In vitro kinase assays with purified components and full kinase panel analysis was done at Reaction Biology Corp. (Malvern, PA, USA) using the HotSpot Kinase Assay. Reactions were performed for 20 min at room temp. using ^33P-ATP (Specific activity 10 μCi/μl) with 1 μM total ATP, 20 μM substrate and kinases in the nanomolar range in 20 mM Hepes (pH 7.5), 10 mM MgCl2, 1 mM EGTA, 0.02% Brij35, 0.02 mg/ml BSA, 0.1 mM Na3VO4, 2 mM DTT, 1% DMSO and other required factors depending on the assayed kinase.
# Sequence of EIF2AK2 (PKR) (P19525 whole entry): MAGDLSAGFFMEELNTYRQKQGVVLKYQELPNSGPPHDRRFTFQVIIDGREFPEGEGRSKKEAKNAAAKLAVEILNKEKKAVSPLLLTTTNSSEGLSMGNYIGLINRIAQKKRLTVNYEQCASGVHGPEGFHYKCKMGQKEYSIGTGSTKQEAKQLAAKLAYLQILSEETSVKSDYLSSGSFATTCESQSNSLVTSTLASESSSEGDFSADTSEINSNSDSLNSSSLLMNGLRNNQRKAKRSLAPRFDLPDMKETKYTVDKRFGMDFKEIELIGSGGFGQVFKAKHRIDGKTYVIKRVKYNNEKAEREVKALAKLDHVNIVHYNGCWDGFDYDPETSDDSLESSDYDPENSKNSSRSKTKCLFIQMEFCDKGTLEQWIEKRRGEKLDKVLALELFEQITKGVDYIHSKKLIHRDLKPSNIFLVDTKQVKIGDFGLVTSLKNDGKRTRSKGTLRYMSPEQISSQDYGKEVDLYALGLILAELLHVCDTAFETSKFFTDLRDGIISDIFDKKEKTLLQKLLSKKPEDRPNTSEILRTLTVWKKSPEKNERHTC
smiles,measurement,value
CN(/N=C\c1ccc(O)c(O)c1)c1nc(-c2ccccc2)cc(-c2ccccc2)n1 [MK-28],effect on EIF2AK2 (PKR) activity,little or no effect
